Data reported in ChEMBL document CHEMBL1133439, “Synthesis and biological evaluation of enantiopure thionitrites: the solid-phase synthesis and nitrosation of D-glutathione as a molecular probe” (Bioorg Med Chem Lett, 2000).

How the values were obtained:
Rattus norvegicus [1] = species: Rattus norvegicus; experiment: Effective concentration required for relaxation of rat aortic rings; assay type: functional; details: Aorta
Rattus norvegicus [2] = species: Rattus norvegicus; experiment: Percentage Inhibition of relaxation of phenylephrine-induced tone in rat aortic smooth muscle at ~1000 nM; assay type: functional, Aorta
Rattus norvegicus [3] = species: Rattus norvegicus; experiment: Percentage Inhibition of relaxation of phenylephrine-induced tone in rat aortic smooth muscle at ~100 nM; assay type: functional, Aorta
Rattus norvegicus [4] = species: Rattus norvegicus; experiment: Percentage Inhibition of relaxation of phenylephrine-induced tone in rat aortic smooth muscle at ~5000 nM; assay type: functional, Aorta
Rattus norvegicus [5] = species: Rattus norvegicus; experiment: Percentage Inhibition of relaxation of phenylephrine-induced tone in rat aortic smooth muscle at ~600 nM; assay type: functional, Aorta
Rattus norvegicus [6] = species: Rattus norvegicus; experiment: Percentage Inhibition of relaxation of phenylephrine-induced tone in rat aortic smooth muscle at ~10000 nM; assay type: functional, Aorta
Rattus norvegicus [7] = species: Rattus norvegicus; experiment: Percentage Inhibition of relaxation of phenylephrine-induced tone in rat aortic smooth muscle at ~10 nM; assay type: functional, Aorta
Rattus norvegicus [8] = species: Rattus norvegicus; experiment: Percentage Inhibition of relaxation of phenylephrine-induced tone in rat aortic smooth muscle at ~500 nM; assay type: functional, Aorta

Structure (SMILES): N[C@H](CCC(=O)N[C@H](CSN=O)C(=O)NCC(=O)O)C(=O)O
- EC50 (Rattus norvegicus [1]): 0.29 µM
- Inhibition (Rattus norvegicus [2]): 80%
- Inhibition (Rattus norvegicus [3]): 25%
- Inhibition (Rattus norvegicus [4]): 100%
- Inhibition (Rattus norvegicus [5]): 50%

Structure (SMILES): N[C@@H](CSN=O)C(=O)O
- EC50 (Rattus norvegicus [1]): 0.002 µM

Structure (SMILES): CC(=O)N[C@H](C(=O)O)C(C)(C)SN=O
- EC50 (Rattus norvegicus [1]): 0.476 µM

Structure (SMILES): N[C@H](CSN=O)C(=O)O
- EC50 (Rattus norvegicus [1]): 0.0021 µM

Structure (SMILES): CC(=O)N[C@@H](C(=O)O)C(C)(C)SN=O
- EC50 (Rattus norvegicus [1]): 0.492 µM

Structure (SMILES): N[C@@H](CCC(=O)N[C@@H](CSN=O)C(=O)NCC(=O)O)C(=O)O [S-NITROSOGLUTATHIONE]
- EC50 (Rattus norvegicus [1]): 0.107 µM
- Inhibition (Rattus norvegicus [6]): 100%
- Inhibition (Rattus norvegicus [2]): 90%
- Inhibition (Rattus norvegicus [3]): 50%
- Inhibition (Rattus norvegicus [7]): 20%
- Inhibition (Rattus norvegicus [8]): 80%
